What follows are compounds tested against T1, HNF4α (hepatocyte nuclear factor 4α) (Homo sapiens, UniProt P41235) (assay: microscale thermophoresis).
T1 sequence (P41235 147-377 limits assumed): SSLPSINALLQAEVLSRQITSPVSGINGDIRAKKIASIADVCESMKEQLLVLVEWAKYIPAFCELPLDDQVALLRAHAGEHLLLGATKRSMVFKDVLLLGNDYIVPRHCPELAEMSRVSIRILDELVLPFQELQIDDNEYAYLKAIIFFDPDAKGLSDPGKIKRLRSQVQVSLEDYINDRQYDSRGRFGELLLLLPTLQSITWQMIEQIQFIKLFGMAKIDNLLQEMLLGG
Assay type: binding
`O=C(/C=C/c1ccc(O)c(O)c1)O[C@@H]1C[C@@](OC(=O)/C=C/c2ccc(O)c(O)c2)(C(=O)O)C[C@@H](O)[C@@H]1O` [cynarin] was tested, and the Kd was 3110 µM. With `COc1c(/C=C/C(=O)c2ccc(O)cc2)ccc(O)c1O` [licochalcone B] the Kd was 78.2 µM. `O=C(/C=C/c1ccc(O)c(O)c1)O[C@H](Cc1ccc(O)c(O)c1)C(=O)O` [rosmarinic acid] was tested, and the Kd was 34.9 µM.

— article PMC11755020 (Computational and Structural Biotechnology Journal, 2024)
